# From US20240132559A1, “COMPOSITIONS AND METHODS FOR MODULATING MYC EXPRESSION” (FLAGSHIP PIONEERING INNOVATIONS V, INC., priority 2020, published 2024)
# Columns and labels:
# MYC = MYC mRNA expression by qPCR in human lung cancer cell lines after LNP transfection; type: cell-based
# Description: Viability was measured using the CellTiter-GLO® assay kit from Promega according to manufacturer's protocol. RNA was isolated from three biological replicates, using the Rneasy® Plus 96-well Kit (Qiagen) following the Manufacturer's protocol. RNA samples were retrotranscribed to cDNA using LunaScript® RT SuperMix Kit (NEB) and analyzed by quantitative PCR (qPCR) (in technical triplicates) using a MYC specific TaqMan™ primer/probe set assay with the TaqMan™ Fast Advanced Master Mix (Thermo Scientific). MYC expression was quantified relative to the expression of GAPDH reference genes using the ΔΔCt method, the untreated and dCas9(no-effector) samples were used as calibrators.
# (§1) Guide RNAs (Table 13) were designed across the lung super-enhancer region and tested in combination with the KRAB repressor protein conjugated to an enzymatically dead CAS9. The effector mRNA and guide RNAs were co-delivered using LNP delivery with SSOP with mRNA delivery of GFP as a negative control. NCSLC cell line A549 were seeded in 96-well plates in growth media (10000 cells/well). LNP formulations (2.5 ug/ml) were then added to the cells to transfect the effector mRNA/guide RNA then incubated for 72 hours. RNA was isolated from three biological replicates, using the Rneasy® Plus 96-well Kit (Qiagen) following the Manufacture's protocol. RNA samples were retrotranscribed to cDNA using LunaScript® RT SuperMix Kit (NEB) and analyzed by quantitative PCR (qPCR) (in technical triplicates) using a MYC specific TaqMan™ primer/probe set assay with the TaqMan™ Fast Advanced Master Mix (Thermo Scientific). MYC expression was quantified relative to the expression of GAPDH reference genes using the ΔΔCt method, the untreated samples were used as calibrators.
# as §1, with “GuideRNAs” for “Guide RNAs”, “MC3” for “SSOP”
# Guide RNAs (GD-29833 and GD-29914) targeted to the MYC super-enhancer were tested in combination with repressor proteins including the histone methyltransferase EZH2 (alone or in conjunction with KRAB) and the DNA methyltransferase MQ1 conjugated to an enzymatically dead CAS9. The effector mRNA and guide RNAs were co-delivered using LNP delivery with SSOP with mRNA delivery of GFP as a negative control. NCSLC cell lines A549 or NCI-H2009 were seeded in 96-well plates in growth media (10000 cells/well). LNP formulations (2.5 ug/ml) were then added to the cells to transfect the effector mRNA/guide RNA then incubated for 72 hours. RNA was isolated from three biological replicates, using the Rneasy® Plus 96-well Kit (Qiagen) following the Manufacture's protocol. RNA samples were retrotranscribed to cDNA using LunaScript® RT SuperMix Kit (NEB) and analyzed by quantitative PCR (qPCR) (in technical triplicates) using a MYC specific TaqMan′ primer/probe set assay with the TaqMan™ Fast Advanced Master Mix (Thermo Scientific). MYC expression was quantified relative to the expression of GAPDH reference genes using the ΔΔCt method, the untreated samples were used as calibrators. […]
# A549 cells [1] = assay: A549 viability with ZF9-MQ1 and small molecule inhibitors, alone and combined; type: cell-based, human; details: each agent separately
# A549 cells [2] = assay: A549 cell viability, ZF9-MQ1 alone and with BET or MEK inhibitors (CellTiter-GLO); type: cell-based, human; details: 72-hour incubation, single agent
# Description: This example evaluates the effect of ZF9-MQ1 construct on A549 cell viability when used in combination with varying concentrations of JQ1 inhibitor.
# (§2) A549 cells were seeded at 4,000 cells per well in duplicate plates for cell viability analysis. The 96-well plates were treated in triplicate with GFP or ZF9-MQ1 loaded LNPs at 0.5 ug/mL or 1.0 μg/mL in combination with increasing concentrations of the BET inhibitor JQ1 (concentrations up to 6.25 uM) and incubated. Untreated cells and GFP treated cells were used as controls. After 72-hour incubation, one 96-well plate was lysed with CellTiter-GLO® and luminescence was quantified using the GloMax® Discovery plate reader.
# This example evaluates the effect of ZF9-MQ1 construct on A549 cell viability when used in combination with varying concentrations of BET762 inhibitor.
# as §2, with “μg/mL” for “ug/mL”, “concentrations (concentrations up to 1.25 uM)” for “concentrations”, “BET762” for “JQ1 (concentrations up to 6.25 uM)”
# This example evaluates the effect of ZF9-MQ1 construct on A549 cell viability when used in combination with varying concentrations of BET inhibitor, Birabresib.
# as §2, with “μg/mL” for “ug/mL”, “concentrations (concentrations up to 0.625 uM for 0.5 μg/ml ZF9-MQ1 treated cells and up to 0.313 uM for 1.0 μg/ml ZF9-MQ1 treated cells)” for “concentrations”, “Birabresib” for “JQ1 (concentrations up to 6.25 uM)”
# This example evaluates the effect of ZF9-MQ1 construct on A549 cell viability when used in combination with varying concentrations of MEK inhibitor, Trametinib.
# as §2, with “μg/mL” for “ug/mL”, “concentrations” for “concentrations of the BET inhibitor JQ1”, “0.05” for “6.25”, “uM) of the MEK inhibitor Trametinib” for “uM)”, “Untreated cells and GFP treated cells were used as controls.” left out
# [3] = A549, guide delivered with KRAB or MQ1, 120 hours
# [4] = A549, guide delivered with dCAS9-KRAB effector mRNA, MC3 LNP 2.5 ug/ml, 72 hours
# [5] = A549, guide delivered with dCAS9-KRAB effector mRNA, SSOP LNP 2.5 ug/ml, 72 hours
# [6] = A549, guide delivered with dCas9 effectors EZH2, EZH2-KRAB and MQ1, 72 hours
# [7] = NCI-H2009, guide delivered with KRAB or MQ1, 120 hours
# [8] = NCI-H2009, guide delivered with dCas9 effectors EZH2, EZH2-KRAB and MQ1, 72 hours
Compound,MYC mRNA down-regulation (in words) (MYC; [3]),MYC mRNA down-regulation (in words) (MYC; [4]),MYC mRNA down-regulation (in words) (MYC; [5]),MYC mRNA down-regulation (in words) (MYC; [6]),MYC mRNA down-regulation (in words) (MYC; [7]),MYC mRNA down-regulation (in words) (MYC; [8]),"inhibition of A549 cell viability, single agent (A549 cells [1])","A549 cell viability, each agent separately (A549 cells [2])"
"GD-29914: guide RNA to MYC lung super-enhancer, SEQ ID NO: 108 (guide CAGCACTCTCGCTGACCGCA; listed as DNA, chemistry not given here; listed as Homo sapiens)",significantly downregulate MYC mRNA levels,effectively downregulate MYC mRNA levels,effectively downregulate MYC mRNA levels,effectively downregulate MYC mRNA levels,significantly downregulate MYC mRNA levels,effectively downregulate MYC mRNA levels,–,–
Cc1sc2c(c1C)C(c1ccc(Cl)cc1)=N[C@@H](CC(=O)Nc1ccc(O)cc1)c1nnc(C)n1-2 [birabresib],–,–,–,–,–,–,inhibited cell viability of A549 cells,inhibited cell viability
CC(=O)Nc1cccc(-n2c(=O)n(C3CC3)c(=O)c3c(Nc4ccc(I)cc4F)n(C)c(=O)c(C)c32)c1 [trametinib],–,–,–,–,–,–,inhibited cell viability of A549 cells,inhibited cell viability
CCNC(=O)C[C@@H]1N=C(c2ccc(Cl)cc2)c2cc(OC)ccc2-n2c(C)nnc21 [BET762],–,–,–,–,–,–,inhibited cell viability of A549 cells,inhibited cell viability
"GD-29833: guide RNA to MYC lung super-enhancer, SEQ ID NO: 96 (guide TGCCACTTCCCCACTAACCC; listed as DNA, chemistry not given here; listed as Homo sapiens)",significantly downregulate MYC mRNA levels,effectively downregulate MYC mRNA levels,effectively downregulate MYC mRNA levels,effectively downregulate MYC mRNA levels,significantly downregulate MYC mRNA levels,effectively downregulate MYC mRNA levels,–,–
